Measurements taken from patent US9326993B2, “Treatment of pulmonary and pleural fibrosis using HSP27 inhibitors” (ONCOGENEX TECHNOLOGIES INC., priority 2011, dated 2016).

Columns and labels:
mesothelial Met-5A cells = test: Scratch test (migration) on Met-5A cells after rTGF-β1; assay type: cell-based, human; settings: cells treated with rTGF-β1
Method: (§1) HSP27 siRNA were purchased from applied bios system (Courtaboeuf, France). The sense and antisense sequence were respectively: 5′-GUUCAAAGCAACCACCUGUtt-3 (SEQ ID No: 4)′ and 5′-ACAGGUGGUUGCUUUGAACtt-3′. (SEQ ID No: 5). They were used at a concentration of 50 nM. SiRNA were transfected using INTERFERin (polyplus, Illkirch, France) following the manufacturer recommendations. 5-6 hours after transfection medium were changed and cells were treated or not with 10 ng/ml TGF-β1 for 12, 24 or 48 hours. Seq ID No. 3 was used as a random control oligonucleotide.
Therefore, HSP27 inhibition blocked this all well known features of EMT induced by TGF-β1 in cultured cells. This corresponded to HSP27 expression levels (FIG. 3G).

epithelial A549 cells = test: rTGF-β1-induced EMT in A549 cells; assay type: cell-based, human; settings: siRNA 50 nM, rTGF-β1 10 ng/ml
Method: (§2) Mesothelial rat established cell line 4/4 RM4 cells (American Type Culture Collection—ATCC—Rockville, Md.) were seeded in Ham's F10 (Lonza), with FBS 15%. Mesothelial human established cell line MET-5A (ATCC) were seeded in Medium 199 (lonza), 1% L-glutamine, 1% penicillin-streptomycin with 10% FBS. Epithelial human cell line A549 cells (ATCC) and were seeded in Ham's F10 (lonza) with 10% FBS.
(§3) For EMT induction and analysis, all the different cells were exposed to their respective medium containing 10 ng/ml recombinant (r)TGF-β1 (R&D system, Lille, France) for 6, 12, 24, or 48 hours.
as §1, with “Seq ID No. 3 was used as a random control oligonucleotide.” left out
(§4) Total RNA was extracted using TRIzol (Invitrogen, Cergy Pontoise, France) from MET-5A and A549 cells treated or not with rTGF-β1 12 or 24 hours and transfected or not by HSP27 siRNA or plasmid encoding HSP27. […] Quantitative RT-PCR was performed on the cDNA using the SYBR green master mix (promega, Charbonnieres, France). […]

[1] = system: human mesothelial Met-5A cells; test: rTGF-β1-induced EMT in Met-5A cells (western blot, RT-PCR); assay type: cell-based; settings: siRNA 50 nM, rTGF-β1 10 ng/ml
Method: as §2, §3, §1
Protein extraction was made using triton X 100 during 30 min at 4° C., vortexing every 10 min. Protein dosage is made with the modified lowry kit (Biorad, Marne-la-Coquette, France). Equal amounts of protein (30-50 μg) were electrophoresed through 8 to 12% SDS polyacrylamide gels. The separate protein bands were transferred onto a PVDF membrane. The non-specific sites were saturated with a solution of PBS-tween 0.1%, nonfat milk 8%. Membranes were incubated with primary Abs over night at 4° C. Secondary Abs IgG linked to HRP (HorseRadish Peroxidase, Jackson ImmunoResearch Laboratories, PA, USA) were used at a concentration of 1/5000. Enhanced ChemiLuminescent substrat (ECL, santa cruz biotechnology, CA, USA) was used to detect the protein of interest. […]
as §4

HSP27 siRNA: siRNA, sense 5′-GUUCAAAGCAACCACCUGUtt-3′ (SEQ ID No: 4), antisense 5′-ACAGGUGGUUGCUUUGAACtt-3′ (SEQ ID No: 5) (sense GUUCAAAGCAACCACCUGUTT; antisense ACAGGUGGUUGCUUUGAACTT; chemistry not given here; listed as Homo sapiens)
migration capacity in scratch test (mesothelial Met-5A cells): much weaker migration
wound recovery by 48 h (mesothelial Met-5A cells; 48 h): still largely unrecovered
rTGF-β1 induced α-SMA (epithelial A549 cells): inhibits
rTGF-β1 induced α-SMA ([1]; Met-5A cells): inhibits
rTGF-β1-induced E-cadherin down-regulation ([1]; 48 h): blocks
rTGF-β1-induced α-SMA upregulation ([1]; 48 h): blocks
